Holding throughout (type): in vivo
The subject of one data set is hairless mouse skin. The experiment in a line: Appearance and texture of treated skin. The procedure: (§1) To determine whether inhibitors of β-glucocerebrosidase would cause more profound effects than applications of exogenous GlcCER alone (examples 5&6), we next applied the specific, suicide inhibitor, bromoconduritol-B-epoxide (BrCBE) to intact hairless mouse skin (Simonsen Laboratories, Gilroy, Calif.) (Holleran, W. M. et al., J. Clin. Invest. (1993) 91:1656-1664). BrCBE (325 nmol in 20 μl propylene glycol:ethanol, 7:3 vols) was applied once daily for 0-14 days. (Holleran, W. M. et al. (1994) J. Clin. Inv. 93:1756-1764)

The target of the next data set is T1, β-glucocerebrosidase (Mus musculus, UniProt P17439).
T1 construct: from tissue; host or cells: epidermis of hairless mice (Simonsen Laboratories, Gilroy, Calif.)
T1 sequence (P17439 20-515): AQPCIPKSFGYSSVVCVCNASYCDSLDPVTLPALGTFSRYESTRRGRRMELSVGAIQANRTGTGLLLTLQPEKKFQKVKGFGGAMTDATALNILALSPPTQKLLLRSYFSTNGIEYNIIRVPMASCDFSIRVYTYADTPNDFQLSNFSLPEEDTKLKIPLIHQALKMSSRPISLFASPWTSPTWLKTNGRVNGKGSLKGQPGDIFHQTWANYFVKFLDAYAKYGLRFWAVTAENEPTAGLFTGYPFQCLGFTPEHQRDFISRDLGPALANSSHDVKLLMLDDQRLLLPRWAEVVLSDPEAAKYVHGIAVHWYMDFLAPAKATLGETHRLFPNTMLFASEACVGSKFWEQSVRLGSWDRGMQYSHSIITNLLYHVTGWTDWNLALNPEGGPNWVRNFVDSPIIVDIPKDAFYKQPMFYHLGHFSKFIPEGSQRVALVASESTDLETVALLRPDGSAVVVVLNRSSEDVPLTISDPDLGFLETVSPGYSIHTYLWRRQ
Nature of the data set: Epidermal β-glucocerebrosidase activity after topical BrCBE. To be noted: topical BrCBE 325 nmol once daily. The procedure: as §1

Another data set concerns hairless mouse epidermis. Nature of the data set: Epidermal / stratum corneum lipid content (HPTLC/TLC). As for the experimental part:
Hairless mice were treated with BrCBE for 5 days as described in Example 10. The following high performance thin layer chromatograph (HPTLC) system was developed for optimal separation of ceramides and glucosylceramides for quantitation by spectrodensitometry. Extracts were applied to precleaned 10 ×20 cm HPTLC plates, 0.5 cm from lower edge of the plate and fractionated sequentially in a horizontal developmental chamber (Camag, Muttenz, Switzerland) in the following solvent systems: 1) chloroform:methanol:acetic acid (190:9:1), v/v/v) to the top, twice; 2) chloroform:methanol:acetone (76:20:4, by volume) to 30 mm. Between each development, the plate was dried for 5 minutes on a hot plate (40° C.), cooled for 2 minutes, and equilibrated in the tank with the solvents for 3 minutes. After final development, the plates were dried, cooled, dipped in charring solution (1.5% cupric sulfate in acetic acid:sulfuric acid:orthophosphoric acid:water (50:10:10:30, by volume) for 15 seconds, dried (40° .C) for 5 minutes, and then charred at 180° C. for 15 minutes. Plates were scanned with a variable wavelength scanning densitometer (Camag, Muttenz, Switzerland). Lipid amounts for each fraction were estimated using ceramides 3 and 4, and galactosylceramides 1 and 2 as reference standards (Sigma Chemical Co., St. Louis, Mo.).
The epidermal glucosylceramide content was determined in mice treated with the topical β-glucocerebrosidase inhibitors. Mice were treated with CBE for one day as described in FIG. 22. The mice were sacrificed and whole skin was excised. Subcutaneous fascia and fat were scraped off, and the samples were placed dermis side down onto […] EDTA in PBS-CMF (pH 7.4) and incubated at 37° C. for 40 min. Skin was blotted dry with a tissue and the epidermis was removed by scraping with a surgical blade. The epidermis was minced, placed into microcentrifuge vials, immediately snap frozen and stored in liquid N2 until extracted.
For extraction the tissue was soaked in 7.6 ml Bligh/Dyer extraction media (2 ml chloroform, 4 ml Methanol, 1.6 ml H2O) overnight at room temperature. The following day the tissue was shaken for 20 min. and centrifuged for 10 min. the solvent was removed and the pellet was combined with 7.6 ml Bligh/Dyer media and again shaken and centrifuged. The solvents were combined with solvent from the soaks and filtered through pre-solvent-washed Whatman 43 filter paper, 2 ml chloroform and 2 ml H2O was added to each 7.6 ml quantity of the filtrate and shaken for 10 min. The samples were then centrifuged and the upper phase discarded. The lower phase was washed with 4 ml chloroform, 4 ml MetOH, and 3.6 ml H2O (shaken for 10 min and centrifuged). The upper phase was discarded. The lower phase was dried under N2 in a 47° C. water bath. The lipid was resuspended in chloroform and weighed on the Cahn balance.
TLC was performed using 15-20 μg samples and quantitated against standard glycosylceramide and 40 μg sample for sphingolipids (Holleran, W. M. et al. (1993) J. Clin. Invest. 91:1656-1664).
Both glucosylceramide and ceramide content was then determined in lower (stratum basale) and upper (stratum spinosum, stratum granulosum and stratum corneum) epidermis (FIG. 23). Following 24 hours of CBE treatment samples were excised following treatment (as in Example 16).

For data set [1], the system named is intact hairless mouse skin. Nature of the data set: Transepidermal water loss after topical application. To be noted: BrCBE 325 nmol topical once daily, after four daily applications. The procedure:
as §1
Transepidermal Water Loss was determined by using a MEECO electrolytic water analyzer (MEECO, Warrington, Pa.). Water loss measurements are recorded over a small area of skin (0.5cm^2) in parts per million/0.5cm^2 per hour over background.

Where [2] appears, read: BrCBE 325 nmol/5cm^2/day, five days.

For `OC1C(O)C(Br)C2OC2C1O` (stereo not shown) [BrCBE, bromoconduritol-B-epoxide], in the data set with hairless mouse skin (BrCBE-treated skin), the inflammation or edema result is listed as “no indication of inflammation or edema”; the skin moisture content entry is “increased moisture content”; the “skin smoothness and softening of skin surface” value was “marked increase”. In the data set on hairless mouse skin (BrCBE-treated vs vehicle-treated skin, visual inspection), the skin wrinkling entry was “reduced”. Also, on β-glucocerebrosidase, the “epidermal β-glucocerebrosidase activity, of normal” value was 5 % of normal and the “reduction of epidermal β-glucocerebrosidase activity” value is given as “about 95%”. Besides, in the data set on hairless mouse epidermis (setting [2]), the “ceramide content, whole epidermis lipid extracts” value is reported as “decrease” and the “epidermal glucosylceramides, whole epidermis lipid extracts” value was “increased”. Further, the “increase in stratum corneum glucosylceramides” value in the data set with hairless mouse epidermis (BrCBE 5 days, vs vehicle-treated and/or untreated murine stratum corneum, FIG. 14) is on record as “eight to ten”. Further, in data set [1], the “TEWL plateau level (defect in permeability barrier function)” value is on record as 10-15 times normal.

For the origin of these results see US6399580B1, “Methods and compositions for stimulating tissue growth and epithelial moisturization” (The Regents of the University of California, priority 1994, dated 2002).
